US20250163104A1, “MACROCYCLIC IMMUNOMODULATORS” (priority 2021, published 2025)
Where a SMILES comes first, the peptide text is derived from it. Bridges are numbered along the chain shown (N, C = ends). [ ]: non-standard residue; d: D form. The star is where a group is joined. Bip = N[C@@H](Cc1ccc(-c2ccccc2)cc1)C(=O)O; 4Pal = N[C@@H](Cc1ccncc1)C(=O)O; 2Thi = N[C@@H](Cc1cccs1)C(=O)O; Cha = N[C@@H](CC1CCCCC1)C(=O)O; Carboxymethyl = O=C(O)C*; Orn = NCCC[C@H](N)C(=O)O; Dab = NCC[C@H](N)C(=O)O; Dap = NC[C@H](N)C(=O)O

target: T1, human PD-1 / PD-L1-Ig binding on Jurkat cell line over-expressing human PD-1 (Jurkat-PD-1) (Homo sapiens, UniProt Q15116); assay: Jurkat-PD-1 Cell Binding High-Content Screening Assay (CBA); format: cell-based; settings: Jurkat-PD-1 cells, PE-labeled PD-L1-Ig 20 nM final; read-out: Jurkat HPD1_PDL1 IC50
T1 construct: expressed in transfected cells; host or cells: Jurkat
How it was run: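 PE-PD-L1-Ig 20 nM final; cells in DMEM/10% FCS; cpd pre-incubation 2 h, 37° C; ligand 1 h; PFA fix + Hoechst 33342; high-content imaging read-out.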

T1 sequence (Q15116 25-288): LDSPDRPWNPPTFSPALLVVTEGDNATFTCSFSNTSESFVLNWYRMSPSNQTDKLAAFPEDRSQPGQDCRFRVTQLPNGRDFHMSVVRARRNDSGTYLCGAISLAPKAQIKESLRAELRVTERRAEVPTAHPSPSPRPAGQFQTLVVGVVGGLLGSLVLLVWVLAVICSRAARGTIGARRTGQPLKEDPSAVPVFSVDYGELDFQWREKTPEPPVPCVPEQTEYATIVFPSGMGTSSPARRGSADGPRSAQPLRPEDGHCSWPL

SMILES	IC50 [nM]
CC(C)C[C@H]1NC(=O)[C@H](CCCN)NC(=O)[C@H](CCC(=O)O)NC(=O)[C@H](Cc2ccc(-c3ccccc3)cc2)NC(=O)[C@H](C(C)C)NC(=O)[C@H](Cc2c[nH]c3ccccc23)NC(=O)[C@H](CC(=O)O)NC(=O)[C@H](Cc2ccc(C#N)cc2)NC(=O)[C@H](Cc2ccc(OCC(=O)O)cc2)NC(=O)CSC[C@@H](C(=O)N[C@@H](C)C(N)=O)NC(=O)[C@H]([C@@H](C)O)NC(=O)[C@H](C(C)C)NC(=O)[C@H](CC2CCCCC2)NC(=O)[C@H](CCN)NC1=O [Compound 2188]	24.1
CC(C)C[C@H]1NC(=O)[C@H](CCCN)NC(=O)[C@H](CCC(=O)O)NC(=O)[C@H](Cc2ccc(-c3ccccc3)cc2)NC(=O)[C@H](C(C)C)NC(=O)[C@H](Cc2c[nH]c3ccccc23)NC(=O)[C@H](CC(=O)O)NC(=O)[C@H](Cc2ccc(C#N)cc2)NC(=O)[C@H](Cc2ccncc2)NC(=O)CSC[C@@H](C(=O)N[C@@H](C)C(N)=O)NC(=O)[C@H]([C@@H](C)O)NC(=O)[C@H](C(C)C)NC(=O)[C@H](CC2CCCCC2)NC(=O)[C@H](CCN)NC1=O [Compound 2189]	32.2
CC(C)C[C@H]1NC(=O)[C@H](CCCN)NC(=O)[C@H](CCC(=O)O)NC(=O)[C@H](Cc2ccc(-c3ccccc3)cc2)NC(=O)[C@H](C(C)C)NC(=O)[C@H](Cc2c[nH]c3ccccc23)NC(=O)[C@H](CC(=O)O)NC(=O)[C@H](Cc2cccs2)NC(=O)[C@H](CC(N)=O)NC(=O)CSC[C@@H](C(=O)N[C@@H](C)C(N)=O)NC(=O)[C@H]([C@@H](C)O)NC(=O)[C@H](C(C)C)NC(=O)[C@H](CC2CCCCC2)NC(=O)[C@H](CCN)NC1=O [Compound 2190] ({CH2CO}-N[2Thi]DWV[Bip]E[Orn][dL][Dab][Cha]VTCA-NH2; thioether N-14)	15.3
CC(C)C[C@H]1NC(=O)[C@H](CCCN)NC(=O)[C@H](CCC(=O)O)NC(=O)[C@H](Cc2ccc(-c3ccccc3)cc2)NC(=O)[C@H](C(C)C)NC(=O)[C@H](Cc2c[nH]c3ccccc23)NC(=O)[C@H](CC(=O)O)NC(=O)[C@H](Cc2cccs2)NC(=O)[C@H](Cc2ccccc2)NC(=O)CSC[C@@H](C(=O)N[C@@H](C)C(N)=O)NC(=O)[C@H]([C@@H](C)O)NC(=O)[C@H](C(C)C)NC(=O)[C@H](CC2CCCCC2)NC(=O)[C@H](CCN)NC1=O [Compound 2191] ({CH2CO}-F[2Thi]DWV[Bip]E[Orn][dL][Dab][Cha]VTCA-NH2; thioether N-14)	59.5
CC(C)C[C@H]1NC(=O)[C@H](CCCN)NC(=O)[C@H](CCC(=O)O)NC(=O)[C@H](Cc2ccc(-c3ccccc3)cc2)NC(=O)[C@H](C(C)C)NC(=O)[C@H](Cc2c[nH]c3ccccc23)NC(=O)[C@H](CC(=O)O)NC(=O)[C@H](Cc2cccs2)NC(=O)[C@H](CN)NC(=O)CSC[C@@H](C(=O)N[C@@H](C)C(N)=O)NC(=O)[C@H]([C@@H](C)O)NC(=O)[C@H](C(C)C)NC(=O)[C@H](CC2CCCCC2)NC(=O)[C@H](CCN)NC1=O [Compound 2192] ({CH2CO}-[Dap][2Thi]DWV[Bip]E[Orn][dL][Dab][Cha]VTCA-NH2; thioether N-14)	18.4
CC(C)C[C@H]1NC(=O)[C@H](CCCN)NC(=O)[C@H](CCC(=O)O)NC(=O)[C@H](Cc2ccc(-c3ccccc3)cc2)NC(=O)[C@H](C(C)C)NC(=O)[C@H](Cc2c[nH]c3ccccc23)NC(=O)[C@H](CC(=O)O)NC(=O)[C@H](Cc2cccs2)NC(=O)[C@H](Cc2ccc(OCC(=O)O)cc2)NC(=O)CSC[C@@H](C(=O)N[C@@H](C)C(N)=O)NC(=O)[C@H]([C@@H](C)O)NC(=O)[C@H](C(C)C)NC(=O)[C@H](CC2CCCCC2)NC(=O)[C@H](CCN)NC1=O [Compound 2193]	23.4
CC(C)C[C@H]1NC(=O)[C@H](CCCN)NC(=O)[C@H](CCC(=O)O)NC(=O)[C@H](Cc2ccc(-c3ccccc3)cc2)NC(=O)[C@H](C(C)C)NC(=O)[C@H](Cc2c[nH]c3ccccc23)NC(=O)[C@H](CC(=O)O)NC(=O)[C@H](Cc2cccs2)NC(=O)[C@H](Cc2ccncc2)NC(=O)CSC[C@@H](C(=O)N[C@@H](C)C(N)=O)NC(=O)[C@H]([C@@H](C)O)NC(=O)[C@H](C(C)C)NC(=O)[C@H](CC2CCCCC2)NC(=O)[C@H](CCN)NC1=O [Compound 2194] ({CH2CO}-[4Pal][2Thi]DWV[Bip]E[Orn][dL][Dab][Cha]VTCA-NH2; thioether N-14)	16.5
CC(C)C[C@H]1NC(=O)[C@H](CCCN)NC(=O)[C@H](CCC(=O)O)NC(=O)[C@H](Cc2ccc(-c3ccccc3)cc2)NC(=O)[C@H](C(C)C)NC(=O)[C@H](Cc2c[nH]c3ccccc23)NC(=O)[C@H](CC(=O)O)NC(=O)[C@H](Cc2ccncc2)NC(=O)[C@H](CC(N)=O)NC(=O)CSC[C@@H](C(=O)N[C@@H](C)C(N)=O)NC(=O)[C@H]([C@@H](C)O)NC(=O)[C@H](C(C)C)NC(=O)[C@H](CC2CCCCC2)NC(=O)[C@H](CCN)NC1=O [Compound 2195] ({CH2CO}-N[4Pal]DWV[Bip]E[Orn][dL][Dab][Cha]VTCA-NH2; thioether N-14)	22.8
CC(C)C[C@H]1NC(=O)[C@H](CCCN)NC(=O)[C@H](CCC(=O)O)NC(=O)[C@H](Cc2ccc(-c3ccccc3)cc2)NC(=O)[C@H](C(C)C)NC(=O)[C@H](Cc2c[nH]c3ccccc23)NC(=O)[C@H](CC(=O)O)NC(=O)[C@H](Cc2ccncc2)NC(=O)[C@H](Cc2ccccc2)NC(=O)CSC[C@@H](C(=O)N[C@@H](C)C(N)=O)NC(=O)[C@H]([C@@H](C)O)NC(=O)[C@H](C(C)C)NC(=O)[C@H](CC2CCCCC2)NC(=O)[C@H](CCN)NC1=O [Compound 2196] ({CH2CO}-F[4Pal]DWV[Bip]E[Orn][dL][Dab][Cha]VTCA-NH2; thioether N-14)	11.6
CC(C)C[C@H]1NC(=O)[C@H](CCCN)NC(=O)[C@H](CCC(=O)O)NC(=O)[C@H](Cc2ccc(-c3ccccc3)cc2)NC(=O)[C@H](C(C)C)NC(=O)[C@H](Cc2c[nH]c3ccccc23)NC(=O)[C@H](CC(=O)O)NC(=O)[C@H](Cc2ccncc2)NC(=O)[C@H](Cc2ccncc2)NC(=O)CSC[C@@H](C(=O)N[C@@H](C)C(N)=O)NC(=O)[C@H]([C@@H](C)O)NC(=O)[C@H](C(C)C)NC(=O)[C@H](CC2CCCCC2)NC(=O)[C@H](CCN)NC1=O [Compound 2197] ({CH2CO}-[4Pal][4Pal]DWV[Bip]E[Orn][dL][Dab][Cha]VTCA-NH2; thioether N-14)	8.2
CC(C)C[C@H]1NC(=O)[C@H](CCCN)NC(=O)[C@H](CCC(=O)O)NC(=O)[C@H](Cc2ccc(-c3ccccc3)cc2)NC(=O)[C@H](C(C)C)NC(=O)[C@H](Cc2c[nH]c3ccccc23)NC(=O)[C@H](CCC(=O)O)NC(=O)[C@H](Cc2ccc(OCC(=O)O)cc2)NC(=O)[C@H](CN)NC(=O)CSC[C@@H](C(=O)N[C@@H](C)C(N)=O)NC(=O)[C@H]([C@@H](C)O)NC(=O)[C@H](C(C)C)NC(=O)[C@H](CC2CCCCC2)NC(=O)[C@H](CCN)NC1=O [Compound 2198] ({CH2CO}-[Dap]Y(Carboxymethyl)EWV[Bip]E[Orn][dL][Dab][Cha]VTCA-NH2; thioether N-14)	803
CC(C)C[C@H]1NC(=O)[C@H](CCCN)NC(=O)[C@H](CCC(=O)O)NC(=O)[C@H](Cc2ccc(-c3ccccc3)cc2)NC(=O)[C@H](C(C)C)NC(=O)[C@H](Cc2cccs2)NC(=O)[C@H](CC(=O)O)NC(=O)[C@H](Cc2ccncc2)NC(=O)[C@H](CC(N)=O)NC(=O)CSC[C@@H](C(=O)N[C@@H](C)C(N)=O)NC(=O)[C@H]([C@@H](C)O)NC(=O)[C@H](C(C)C)NC(=O)[C@H](CC2CCCCC2)NC(=O)[C@H](CCN)NC1=O [Compound 2199] ({CH2CO}-N[4Pal]D[2Thi]V[Bip]E[Orn][dL][Dab][Cha]VTCA-NH2; thioether N-14)	10.6
CC(C)C[C@H]1NC(=O)[C@H](CCCN)NC(=O)[C@H](CCC(=O)O)NC(=O)[C@H](Cc2ccc(-c3ccccc3)cc2)NC(=O)[C@H](C(C)C)NC(=O)[C@H](Cc2cccs2)NC(=O)[C@H](CC(=O)O)NC(=O)[C@H](Cc2ccncc2)NC(=O)[C@H](Cc2ccccc2)NC(=O)CSC[C@@H](C(=O)N[C@@H](C)C(N)=O)NC(=O)[C@H]([C@@H](C)O)NC(=O)[C@H](C(C)C)NC(=O)[C@H](CC2CCCCC2)NC(=O)[C@H](CCN)NC1=O [Compound 2200] ({CH2CO}-F[4Pal]D[2Thi]V[Bip]E[Orn][dL][Dab][Cha]VTCA-NH2; thioether N-14)	10.2
CC(C)C[C@H]1NC(=O)[C@H](CCCN)NC(=O)[C@H](CCC(=O)O)NC(=O)[C@H](Cc2ccc(-c3ccccc3)cc2)NC(=O)[C@H](C(C)C)NC(=O)[C@H](Cc2cccs2)NC(=O)[C@H](CC(=O)O)NC(=O)[C@H](Cc2ccncc2)NC(=O)[C@H](CN)NC(=O)CSC[C@@H](C(=O)N[C@@H](C)C(N)=O)NC(=O)[C@H]([C@@H](C)O)NC(=O)[C@H](C(C)C)NC(=O)[C@H](CC2CCCCC2)NC(=O)[C@H](CCN)NC1=O [Compound 2201] ({CH2CO}-[Dap][4Pal]D[2Thi]V[Bip]E[Orn][dL][Dab][Cha]VTCA-NH2; thioether N-14)	22.5
CC(C)C[C@H]1NC(=O)[C@H](CCCN)NC(=O)[C@H](CCC(=O)O)NC(=O)[C@H](Cc2ccc(-c3ccccc3)cc2)NC(=O)[C@H](C(C)C)NC(=O)[C@H](Cc2cccs2)NC(=O)[C@H](CC(=O)O)NC(=O)[C@H](Cc2ccncc2)NC(=O)[C@H](Cc2ccc(OCC(=O)O)cc2)NC(=O)CSC[C@@H](C(=O)N[C@@H](C)C(N)=O)NC(=O)[C@H]([C@@H](C)O)NC(=O)[C@H](C(C)C)NC(=O)[C@H](CC2CCCCC2)NC(=O)[C@H](CCN)NC1=O [Compound 2202] ({CH2CO}-Y(Carboxymethyl)[4Pal]D[2Thi]V[Bip]E[Orn][dL][Dab][Cha]VTCA-NH2; thioether N-14)	26.5
